{
  "source": "patent US5045452A",
  "about": "“Method for evaluating nephrotoxicity” (Brigham and Women's Hospital, priority 1988, dated 1991)",
  "origin": "cited, not measured here",
  "system": "N-acetyl-beta-D-glucosaminidase",
  "conditions": "exposed workers",
  "data": [
    {"compound": "[Pb]", "note": "[lead]", "values": [
      {"measurement": "urinary acetyl glucosaminidase excretion", "result": "elevated"}
    ]}
  ]
}
